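The compound was tested at five concentrations on cells cultured in 96-well plates, with a 48-hour exposure period. GI50: concentration for 50% inhibition of growth. TGI marks complete inhibition of growth.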
Key:
Assay in all cases: DTP human tumour cell line panel, 48 h
786-0 renal = tested on: 786-0 renal
NCI-H460 lung = tested on: NCI-H460 lung
A549 NSCLC = tested on: A549 NSCLC
OVCAR-5 ovarian = tested on: OVCAR-5 ovarian
IGROV1 ovarian = tested on: IGROV1 ovarian
UACC-257 melanoma = tested on: UACC-257 melanoma
SNB-19 CNS = tested on: SNB-19 CNS
SR leukemia = tested on: SR leukemia
HCT-15 colon = tested on: HCT-15 colon
MOLT-4 leukemia = tested on: MOLT-4 leukemia

SMILES | TGI (786-0 renal) | TGI (NCI-H460 lung) | TGI (A549 NSCLC) | TGI (OVCAR-5 ovarian) | TGI (IGROV1 ovarian) | TGI (UACC-257 melanoma) | TGI (SNB-19 CNS) | TGI (SR leukemia) | TGI (HCT-15 colon) | TGI (MOLT-4 leukemia) | GI50 (786-0 renal) | GI50 (NCI-H460 lung) | GI50 (A549 NSCLC) | GI50 (OVCAR-5 ovarian) | GI50 (IGROV1 ovarian) | GI50 (MOLT-4 leukemia) | GI50 (UACC-257 melanoma) | GI50 (SNB-19 CNS) | GI50 (HCT-15 colon) | GI50 (SR leukemia)
Cc1ccc(/C=C(\NC(=O)c2ccccc2)c2nc3ccccc3[nH]2)cc1 | > 100 µM | > 100 µM | > 100 µM | > 100 µM | > 100 µM | > 100 µM | > 100 µM | > 100 µM | > 100 µM |  |  |  |  |  |  |  |  |  |  | 
Cc1[nH]c2ccccc2c1CC/C(=N\Nc1ccccc1)c1ccccc1 | > 100 µM | > 100 µM | > 100 µM | > 100 µM | > 100 µM | > 100 µM |  |  | > 100 µM | > 100 µM |  |  |  |  |  |  |  |  |  | 
COc1cc(/C=C/c2cc(/C=C/c3ccc(O)c(OC)c3)n(C(=O)Nc3ccccc3Cl)n2)ccc1O | 1.57 µM | 1.25 µM | 2.08 µM | 5.5 µM | 2.39 µM | 3.71 µM | 4.23 µM |  | 4.15 µM | 1.2 µM | 426 nM | 331 nM | 0.336 µM | 1.65 µM | 485 nM | 0.269 µM | 1020 nM | 0.743 µM | 332 nM | 
CSc1ccc2c(cc1=O)[C@@H](NC(=O)c1ccc(Cl)cc1)CCc1cc(O)c(O)c(O)c1-2 | > 100 µM | > 100 µM | > 100 µM | > 100 µM | 50.8 µM | > 100 µM | > 100 µM |  | 51.7 µM | > 100 µM |  |  |  |  |  |  |  |  |  | 
COc1ccc(C(=NN=C(N)N)c2ccc(OC)cc2)cc1 | 13.1 µM | 11 µM | 18.5 µM | 21.6 µM | 13.7 µM | 25.1 µM | 16.4 µM |  | 19.9 µM | 16.7 µM | 3290 nM | 3040 nM | 4.91 µM | 5.1 µM | 2970 nM | 3.89 µM | 7240 nM | 3.72 µM | 4730 nM | 
O=C(Cc1nc2ccccc2o1)C(=O)Nc1cccc(Cl)c1 | > 100 µM | > 100 µM | > 100 µM |  | > 100 µM | > 100 µM | > 100 µM | > 100 µM | > 100 µM | > 100 µM |  |  |  |  |  |  |  |  |  | 
O=C(NCCCl)Nc1cccnc1 | 39.9 µM |  | 99.5 µM |  | 35.6 µM | 72.2 µM | 80.4 µM |  | 66.7 µM | 81.8 µM |  |  |  |  |  |  |  |  |  | 
CN(C)CCC(CCN(C)C)=NO | > 100 µM | > 100 µM | > 100 µM |  | > 100 µM | > 100 µM | > 100 µM |  | > 100 µM | > 100 µM |  |  |  |  |  |  |  |  |  | 
CCOC(=O)C1=C(C)NC(=O)NC1CN1C(=O)c2ccccc2C1=O (configuration not stated) | > 100 µM | > 100 µM | > 100 µM | > 100 µM | > 100 µM | > 100 µM | > 100 µM |  | > 100 µM | > 100 µM | > 100000 nM | > 100000 nM | > 100 µM | > 100 µM | > 100000 nM | > 100 µM | > 100000 nM | > 100 µM | > 100000 nM | 
O=C(OCCCl)C1OC(n2cc(F)c(=O)[nH]c2=O)CC1O (configuration not stated) | > 100 µM | > 100 µM | > 100 µM | > 100 µM | > 100 µM | > 100 µM | > 100 µM |  | > 100 µM | > 100 µM |  |  |  |  |  |  |  |  |  | 
CC(=O)CC/C=C(\C)[C@H](O)[C@H](C)C(=O)O[C@H]1C[C@H](C)C=C2C=C[C@@]3(C)O[C@@H](O)CC(=O)[C@]3(C)[C@H]21 | 3.29 µM | 7.38 µM | 9.17 µM | 6.62 µM | 3.42 µM | 4.48 µM | 2.49 µM | 12 µM | 7.95 µM |  | 430 nM | 379 nM | 1.24 µM | 1.04 µM | 420 nM |  | 589 nM | 0.331 µM | 545 nM | 362 nM
C=CC(=O)NC(N)=NC#N | 300 µM | 360 µM | 345 µM | 317 µM | 330 µM | 249 µM | 523 µM |  | 258 µM | 555 µM |  |  |  |  |  | 197 µM |  |  |  | 
Oc1ccc2ccccc2c1N=Nc1cc(Cl)ccc1Cl | 17 µM |  | > 50 µM | > 50 µM | 18.1 µM | > 50 µM | > 50 µM |  | > 50 µM | > 50 µM |  |  |  |  |  |  |  |  |  | 
COc1ccc(/C=C2\COc3ccc(O)c(O)c3C2=O)c(OC)c1OC | 10.7 µM | 5.75 µM | > 100 µM | 12.8 µM | 7.21 µM | 18.3 µM | 15.7 µM |  | 5.51 µM | > 100 µM | 2950 nM | 2400 nM | 3.11 µM | 3.64 µM | 2090 nM | 1.87 µM | 2880 nM | 3.69 µM | 1740 nM | 

Reference: PubChem BioAssay (NCI)
